“Also recorded” adds a separate entry of the source. Non-standard residues stand in square brackets, D forms with d. Residues, ends and D or L forms follow the SMILES beside them. No end group written: not given here. *: point of attachment. Biotin = O=C1N[C@H]2[C@H](CS[C@H]2CCCCC(=O)*)N1
Assays:
[1] = tested on: α4β7-mediated adhesion of TK-1 cells to MAdCAM-1; test: Cell adhesion assay: TK-1 cells to immobilised MAdCAM-1-Fc; assay type: cell-based, mouse; conditions: for inhibition of TK-1 cell adhesion to MAdCAM-1: Mn++, PMA or AlF4−-activated cells preincubated with increasing concentrations of peptide
Experimental: (§1) Cell adhesion assays. Lab-Tek 16-well glass slides (Nunc) or flat-bottomed 96-well maxisorb plates (Nunc) were coated with purified mouse MAdCAM-1-Fc, human VCAM-1-Fc, and human ICAM-1-Fc (70 to 100 μl of 5 to 10 μg/ml), and incubated at 4° C. overnight. Slides were washed once with PBS, and blocked with FCS for 2 h at room temperature. Slides were washed with Hanks balanced salt solution (HBSS) containing 10 mM Hepes. Cells were either left unlabeled or labeled with the fluorescent dye chloromethyl fluorescein diacetate (CMFDA; Molecular Probes, Oregon), and activated by resuspension in HBSS containing 10 mM Hepes supplemented with 2 mM Ca^++ and 2 mM Mn^++. Cells were alternatively activated with 50 ng/ml PMA, or by incubating with AlF4^− (10 mM NaF and 40 µM AlCl3). They were preincubated with peptides at different concentrations for 10 min at room temperature, checked for viability by trypan blue exclusion, and then 10^6 cells added to each coated well and left to adhere for 30 min at room temperature. Non-adherent unlabeled cells in 16-well glass slides were removed by twice dipping slides gently into PBS, and adherent cells fixed in PBS containing 2% (v/v) glutaraldehyde for at least 3 h. The number of adherent cells was determined by counting the number of adherent cells in four independent fields at 100× magnification under an inverted microscope. Alternatively, non-adherent CMFDA-labeled cells in 96-well plates were removed by inverse centrifugation at 70×g for 5 min into 50 mM Tris pH 7.5, 150 mM NaCl, 2 mM MnCl2, followed by gentle washing with a pipette. The fluorescence of CMFDA-labeled adherent cells was measured using a VICTOR 1420 multilabel counter (Wallac). Unless otherwise stated, experiments were repeated in triplicate, using duplicate wells.

[2] = tested on: kinase(s) in TK-1 cell lysate; test: Assay to test whether β7 cytoplasmic domain peptides bind a kinase(s); assay type: biochemical, mouse; conditions: lysates of unactivated or AlF4−-activated TK-1 cells
Experimental: Assay to test whether β7 cytoplasmic domain peptides bind a kinase(s). TK-1 cells (3×10^6) were lysed in 1 ml of lysis buffer, and centrifuged at 12,000×g for 10 min at 4° C. Supernatants were precleared with 10 μl of Sepharose and then 10 μl of streptavidin-Sepharose. Cytoplasmic domain peptides were screened for their ability to associate with a kinase in lysates of TK-1 cells that were either left unactivated or had been activated with AlF4^−. Biotinylated peptides immobilized on 5 μl of streptavidin-Sepharose were incubated with 1 ml of lysis buffer containing 1 μl of cell lysate for 2 h at 4° C. with gentle shaking. The beads were washed thrice with ice-cold lysis buffer, once with kinase buffer, and were incubated with 30 μl kinase buffer and 0.5 to 1 μCi γ-ATP for 20 min at 30° C. Beads were washed five times, and radioactivity measured in a scintillation counter.

[3] = tested on: α4β7-mediated adhesion of TK-1 cells to VCAM-1; test: Cell adhesion assay: TK-1 cells to immobilised VCAM-1-Fc; assay type: cell-based, mouse; conditions: for inhibition of TK-1 cell adhesion to VCAM-1: Mn++ or PMA-activated cells preincubated with increasing concentrations of peptide; for inhibition of adhesion of CMFDA-labeled TK-1 cells to immobilized human VCAM-1-Fc: R9-fused L and D analogs of YDRREY, fluorescence readout
Experimental: as §1

[4] = tested on: α4β7-mediated adhesion of TK-1 cells to RGD polymer; test: Cell adhesion assay: TK-1 cells to fibronectin-like polymer (RGD); assay type: cell-based, mouse; conditions: for inhibition of TK-1 cell adhesion to RGD polymer: Mn++ or PMA-activated cells preincubated with increasing concentrations of peptide
[5] = tested on: adhesion of H9 cells to MAdCAM-1; test: Cell adhesion assay: H9 cells to MAdCAM-1-Fc; assay type: cell-based, human; conditions: Mn++ or PMA-activated H9 cells
Experimental: as §1

[6] = tested on: adhesion of H9 cells to VCAM-1; test: Cell adhesion assay: H9 cells to VCAM-1-Fc; assay type: cell-based, human; conditions: Mn++ or PMA-activated H9 cells
Experimental: as §1

TK-1 T cells [7] = test: Peptide internalization and visualization in TK-1 cells; assay type: cell-based, mouse; conditions: confocal microscopy; for uptake of penetratin-fused peptide into TK-1 cells: 50 μM peptide, 1 h, FITC-streptavidin; for internalization of R9-fused peptide by TK-1 cells: 30 min incubation
Experimental: Peptide internalization and visualization. […] After washing with PBS, cells were resuspended into PBS/1% FCS and cytocentrifuged onto glass slides. Cytospin smears were fixed with 4% paraformaldehyde in PBS for 15 min at room temperature, washed twice with PBS and permeabilized in PBS containing 0.2% Triton X-100 for 10 min. Biotinylated peptide was detected by incubating the slides with streptavidin-FITC (Sigma, Mo.), and visualized using a Leica TCS 4D confocal laser microscope. Images were processed using Leica Scanware™ 4.2 A software and Adobe Photoshop 5.0.

[8] = tested on: MAdCAM-1-induced clustering of α4β7 on TK-1 cells; test: Confocal microscopy analysis of receptor clustering; assay type: cell-based, mouse; conditions: AlF4−-activated TK-1 cells, peptide 50 μM
Experimental: Confocal microscopy analysis of receptor clustering. TK-1 cells were incubated in the presence or absence of peptides (50 μM) for 1 h at room temperature, and cells were activated for 30 min at room temperature in HBSS containing 2 mM Ca++ and AlF4^−. Cells were incubated with MAdCAM-1-coated microspheres for 1 h on ice. They were washed with PBS containing 0.02% sodium azide, and fixed in 4% (w/v) paraformaldehyde in PBS for an additional 1 h. They were then stained with FITC-conjugated anti-β7 subunit M293 mAb, washed and fixed as above. Cells were mixed 1:1 with Citifluor glycerol/PBS solution, mounted on slides, and analyzed using a Leica TCS4D confocal laser scanning microscope equipped with an external argon-krypton laser (488 nm). Images were digitally recorded and printed on an Epson colour printer using Microsoft Power Point software.

[9] = tested on: TK-1 cells adhered to MAdCAM-1 and VCAM-1; test: Detachment of already adhered TK-1 cells (established focal adhesions); assay type: cell-based, mouse; conditions: Mn++ and PMA-activated cells, incubated 1 h with peptide after adhesion
Experimental: (§2) FIG. 5: Illustrates peptide β7-2 blocks ligand-induced clustering of α4β7 at the cell surface, but cannot disrupt established focal adhesions. (A) Peptide β7-2 blocks ligand-induced clustering of α4β7. TK-1 cells were preincubated with either the β7-2 or β7-3 peptides, or no peptide, and activated with AlF4^−. Ligand-induced clustering of α4β7 was induced by addition of MAdCAM-1-Fc, and cluster formation after 30 min was determined by staining cells with FITC-conjugated M293 mAb (anti-β7 subunit), followed by confocal microscopy. […] TK-1 (B, D) and H9 (C, E) cells activated with Mn^++, and PMA were adhered to glass slides coated with MAdCAM-1-Fc (B, C), and VCAM-1-Fc (D, E), and then incubated for 1 h with peptide β7-2. Cells bound were counted, and represent the mean±SD from four fields. Experiments were performed in triplicate.
(§3) Cell adhesion assays. Lab-Tek 16-well glass slides (Nunc) or flat-bottomed 96-well maxisorb plates (Nunc) were coated with purified mouse MAdCAM-1-Fc, human VCAM-1-Fc, and human ICAM-1-Fc (70 to 100 μl of 5 to 10 μg/ml), and incubated at 4° C. overnight. […] The number of adherent cells was determined by counting the number of adherent cells in four independent fields at 100× magnification under an inverted microscope. […] The fluorescence of CMFDA-labeled adherent cells was measured using a VICTOR 1420 multilabel counter (Wallac). […]

[10] = tested on: H9 cells adhered to MAdCAM-1 and VCAM-1; test: Detachment of already adhered H9 cells (established focal adhesions); assay type: cell-based, human; conditions: Mn++ and PMA-activated cells, incubated 1 h with peptide after adhesion
Experimental: as §2, §3

[11] = tested on: adhesion of H9 cells to RGD polymer; test: Cell adhesion assay: H9 cells to RGD polymer; assay type: cell-based, human; conditions: data not shown
[12] = tested on: tyrosine phosphorylation of β7cyt; test: In vitro kinase assay of GST-β7cyt fusion protein with H9 cell lysate; assay type: biochemical, human; conditions: genistein at 20 μM; H9 cell lysate 1:100
Experimental: Phosphorylation of recombinant GST fusion protein encoding β7cyt. H9 cells (5×10^7) were lysed at 4° C. in 1 ml of lysis buffer (10 mM Tris pH 7.4, 50 mM NaCl, 50 mM NaF, 1 mM sodium orthovanadate, 300 μg/ml PMSF, 20 μg/ml aprotinin, 10 μg/ml leupeptin, and 1% NP-40), centrifuged, and the supernatant precleared with GST-Sepharose. A GST fusion protein (50 μg) encoding the β7 subunit cytoplasmic domain bound to glutathione-Sepharose was incubated with trace amounts (1:100 dilution) of precleared lysate for 2 h at 4° C. The beads were washed thrice with lysis buffer and thrice with kinase buffer (10 mM Tris pH 7.4, 50 mM NaCl, 5 mM MgCl2, 5 mM MnCl2, 0.1 mM Na3VO4), and incubated in 30 μl kinase buffer containing 0.5 μCi [^32P] γATP for 20 min at 30° C. The sample was subjected to SDS-PAGE on a 10% acrylamide gel. The gel was stained with Coomassie Blue to visualize the GST fusion protein, and treated with 1 M KOH at 55° C. for 2 h to remove alkali-labile phosphate moieties on serine and threonine. The gel was dried, and subjected to autoradiography.

TK-1 T cells [13] = assay type: cell-based, mouse

Molecule	inhibition of TK-1 cell adhesion to MAdCAM-1 [1]	formation of a phosphorylated complex (kinase association / phosphorylation of immobilized peptide) [2]	inhibition of TK-1 cell adhesion to VCAM-1 [3]	inhibition of TK-1 cell adhesion to RGD polymer [4]	inhibition of H9 cell adhesion to MAdCAM-1 [5]	inhibition of H9 cell adhesion to VCAM-1 [6]	uptake of penetratin-fused peptide into TK-1 cells (TK-1 T cells [7])	other results
β7-10: peptide β7-12 truncated to remove tyrosine 735 (SEQ ID NO. 26), fused to r9 (Biotin-[dR][dR][dR][dR][dR][dR][dR][dR][dR]DRREY)	not able to inhibit	formed a phosphorylated complex						
RLSVEIYDRREY [β7-2]	abrogated		abrogated	abrogated	blocked	blocked	taken up	blockade of TK-1 cell-binding to MAdCAM-1 ([1]; 100 μm of peptide): almost completely blocked; blockade of TK-1 cell-binding to VCAM-1 ([3]; 100 μm of peptide): almost completely blocked; reduction in TK-1 cell binding to the RGD polymer ([4]; 100 μm of peptide): 50%; blockade of MAdCAM-1-induced clustering (redistribution) of α4β7 at the cell surface [8]: completely blocked; also recorded: blocks; detachment of TK-1 cells already adhered to MAdCAM-1 and VCAM-1 [9]: not able to detach; also recorded: cannot disrupt focal adhesions to detach cells; detachment of H9 cells already adhered to MAdCAM-1 and VCAM-1 [10]: not able to detach; also recorded: cannot disrupt focal adhesions to detach cells
YDRREY [β7-8] (Biotin-RQIKIWFQNRRMKWKKYDRREY; not fully specified)	retained the ability to block	formed a phosphorylated complex	retained the ability to block	retained the ability to block	also blocked	also blocked	taken up	inhibition of H9 cell adhesion to RGD polymer [11]: also blocked
O=c1c(-c2ccc(O)cc2)coc2cc(O)cc(O)c12 [genistein]								blockade of phosphorylation of β7cyt [12]: completely blocked
β7-7: β7cyt residues 729-735 (SEQ ID NO. 24) fused to penetratin (Biotin-RQIKIWFQNRRMKWKKRLSVEIY; not fully specified)	completely ineffective	did not form a phosphorylated complex	completely ineffective	completely ineffective			taken up	
YDRREY [β7-12]	inhibited							inhibition of adhesion of CMFDA-labeled TK-1 cells to immobilized human VCAM-1-Fc [3]: inhibit; internalization of R9-fused peptide by TK-1 cells (TK-1 T cells [7]): rapidly internalized
N=C(N)NCCC[C@@H](NC(=O)CCCC[C@@H]1SC[C@@H]2NC(=O)N[C@@H]21)C(=O)N[C@H](CCCNC(=N)N)C(=O)N[C@H](CCCNC(=N)N)C(=O)N[C@H](CCCNC(=N)N)C(=O)N[C@H](CCCNC(=N)N)C(=O)N[C@H](CCCNC(=N)N)C(=O)N[C@H](CCCNC(=N)N)C(=O)N[C@H](CCCNC(=N)N)C(=O)N[C@H](CCCNC(=N)N)C(=O)N[C@H](Cc1ccc(O)cc1)C(=O)N[C@H](CC(=O)O)C(=O)N[C@H](CCCNC(=N)N)C(=O)N[C@H](CCCNC(=N)N)C(=O)N[C@H](CCC(=O)O)C(=O)N[C@H](Cc1ccc(O)cc1)C(=O)O [β7-13] (Biotin-[dR][dR][dR][dR][dR][dR][dR][dR][dR][dY][dD][dR][dR][dE][dY]-OH; N-terminus and C-terminus assumed)								inhibition of adhesion of CMFDA-labeled TK-1 cells to immobilized human VCAM-1-Fc [3]: inhibit; inhibition of adhesion of CMFDA-labeled TK-1 cells to immobilized human VCAM-1-Fc ([3]; listed as D-amino acid form): as equally potent as the L-enantiomer; internalization of R9-fused peptide by TK-1 cells (TK-1 T cells [7]): internalized; cytotoxic concentration (TK-1 T cells [13]; 2 h): exceeding 50 μM; cell death (TK-1 T cells [13]; at 100 μM, data not shown): 50%
β7-11: peptide β7-12 truncated to remove tyrosine 740 (SEQ ID NO. 27), fused to r9 (Biotin-[dR][dR][dR][dR][dR][dR][dR][dR][dR]YDRRE)	not able to inhibit	formed a phosphorylated complex						
β7-5: extreme C-terminal control peptide of β7cyt (SEQ ID NO. 23) fused to penetratin (Biotin-RQIKIWFQNRRMKWKKTTTINPRFQEADSPTL; not fully specified)		did not form a phosphorylated complex			completely ineffective	completely ineffective	taken up	
QLNWKQDSNPLYKSAITTT [β7-4]		formed a phosphorylated complex			completely ineffective	completely ineffective	taken up	

From US8106003B2, “Peptides and methods for the treatment of inflammatory disease” (Auckland Uniservices Limited, priority 2004, dated 2012)
